Measurements taken from paper PMC13270500, “Legacy 4(1H)‑Quinolone Scaffolds Activity against Acute and Chronic Toxoplasma gondii Infection” (ACS Infectious Diseases, 2026).

Legend:
[1] = system: ME49 R4 ATQ^R tachyzoites; assay: In vitro tachyzoite growth dose response, ATQ-resistant strain R4 (crystal violet); type: cell-based; conditions: Toxoplasma gondii, read-out: EC50 against R4 ATQ^R strain
[2] = system: T. gondii RH (type I) tachyzoites; assay: In vitro tachyzoite growth dose response, RH-RFP (red fluorescence); type: cell-based; conditions: Toxoplasma gondii, RH-RFP type I wild-type, in vitro proliferation; read-out: EC50 against RH tachyzoites
Method: Experiments with T. gondii tachyzoites were carried out with parasites expressing a td-Tomato red fluorescent protein (RFP). , Parasites were purified by passing them through a 25-gauge needle, followed by filtration through a 5 μm filter. Human fibroblasts were cultured in 96-well black plates for 48 (hTERT) or 120 (HFF) hours before the addition of 4,000 fluorescent tachyzoites/well. […] Two technical replicates per concentration were used, and the experiment was repeated in three independent biological replicates. Fluorescence values were measured for up to 7 days, and both excitation (544 nm) and emission (590 nm) were read from the bottom of the plates in a BioTek Synergy H1 Hybrid plate reader. […] The EC50s were calculated using GraphPad Prism software version 10.

**Q.** For `O=C1C(O)=C([C@H]2CC[C@H](c3ccc(Cl)cc3)CC2)C(=O)c2ccccc21` [ATQ, atovaquone], which EC50 [1] is on record?
**A.** 1870 nM

**Q.** And the EC50 [2]?
**A.** 14.1 nM
